Columns and labels:
[1] = test system: 3′UTR of Pten, Ppp2r5e, Prkaa1 and Bim; test: Reporter assay for 3′UTR repression by miR-19; type: cell-based; settings: wild type vs mutated miR-19 binding sites
Text: FIG. 14. Reporter assay for 3′ untranslated region (3′UTR) repression by miR-19. The 3′UTR of the indicated genes was subcloned into a dual luciferase reporter construct (pSiCheck2) and inhibition of the 3′UTR by miR-19 is indicated as mean±SD ratio of Renila to Firefly luciferase activity (RLuc/Luc). WT indicates the wild type 3′UTR. M indicates the 3′UTR where the miR-19 binding site has been mutated. In the case of Pten, one site (M1) or both sites (M1+M2) were mutated [* indicates significant (p<0.05) changes; ** indicates non-significant (p>0.05) changes.]
The Dock5, Ppp2r5e, Prkaa1, and Bim 3′-UTR fragments were generated by PCR and cloned into the psi-CHECK-2 vector (Promega). The assays were performed as described (Xiao, et al., 2008). Binding site mutants were generated by site-directed mutagenesis.

[2] = test system: NOTCH1-induced T-ALL; test: Mouse model of Notch-ICN (NOTCH1)-induced T-ALL, adoptive transfer of transduced HPCs; type: in vivo; settings: HPCs expressing NOTCH1-ICN plus miRNA or shRNA transplanted into irradiated recipients
Description: Can miR-19 drive the development of lymphatic malignancies in vivo? Based on the miR-19 expression and translocation data, miR-19 was assessed in a mouse model of T-ALL (Pear, et al., 1996). Briefly, most cases of T-ALL carry mutations in the Notch1 gene, and, like the […] translocation, these generate the constitutively active intracellular domain of NOTCH1 (Notch-ICN) (Weng, et al., 2004). To test miR-19's ability to promote Notch-ICN-induced T-ALL in vivo, HPCs were adoptively transferred into irradiated recipients (FIG. 3d). […] At the same time, 80% of the mice receiving HPCs expressing only Notch-ICN remained disease free (p=0.0003) (FIG. 3e).
The mouse models of Notch1-induced T-ALL and the EμMyc lymphoma based on adoptive transfer of retrovirally transduced HPCs have been reported (Pear, et al., 1996), (Wendel, et al., 2004). Data were analyzed in Kaplan-Meier format using the log-rank (Mantel-Cox) test for statistical significance. The p53 loss of heterozygosity polymerase chain reaction (LOH PCR) and immunophenotyping by surface marker analysis were as described (Wendel, et al., 2004).
A murine model of NOTCH1-induced T-ALL was used to directly test the oncogenic potential of the most promising miRNAs in vivo. Briefly, HPCs were transduced with NOTCH1 together with either empty vector or an miRNA and transplanted into irradiated, syngeneic recipients. Animals were monitored for leukemia onset by regular blood counts (FIG. 22a). […] Typically, animals receiving HPCs transduced with these miRNAs develop an acute leukemia by 75 days, while >80% of vector controls or animals receiving miR-30 (n=5, p=0.15) remain disease free at this time (FIG. 22b). Based on the in vitro screen and prediction, additional miRNAs were tested. […] Thus, miR-19b, miR-20a, miR-26a, miR-223 and also the less abundant miR-27a and miR-148/152 behave as oncogenes in a murine T-ALL model.
The mouse T-ALL model has been reported (Pear, et al., 1996), (Wendel, et al., 2004). Data were analyzed in Kaplan-Meier format using the log-rank (Mantel-Cox) test for statistical significance. […]

[3] = test system: PTEN, BCL2L11, PHF6, IKZF1, NF1, FBXW7; test: 3′UTR reporter, quantitative PCR and immunoblot assays of tumor suppressor genes in murine leukemias; type: cell-based; settings: murine T-ALLs expressing NOTCH1 and miRNA, mRNA, protein
Description: Immunoblots of whole cell lysates were performed as described (Wendel, et al., 2004). Antibodies were against Bim/Bcl2l11 (AAP-330, 1:1000, Assay Designs), Nf1 (sc67, 1:100, Santa Cruz), Cdc4/Fbxw7 (ab7405, 1:500, Abeam), Ikzf1 (sc-13039, 1:500, Santa Cruz), Phf6 (NB100-79861, 1:1000, Novus Biologicals), Pten (9559, 1:1000, Cell Signaling), tubulin (1:5000; Sigma, B-5-1-2) and actin (1:5000; Sigma, AC-15).
Total RNA and miRNA-enriched RNA was extracted using the Allprep DNA/RNA/Protein and miRNeasy Mini kits. Pathological diagnosis was by expert hematopathologists at Weill Cornell Medical Center. cDNA synthesis, PCR and analysis by the ΔΔ Ct method were as described (Mavrakis, et al., 2008) and utilized Taqman Gene Expression Assays: Bcl2l11 (Mm00437796_m1), BCL2L11 (Hs00197982_m1), Pten (Mm01212532_m1), PTEN (Hs02621230_s1), Nf1 (Mm00812430_m1), NF1 (Hs01035104_m1), Ikzf1 (Mm01187878_m1), IKZF1 (Hs00172991_m1), Fbxw7 (Mm00504452_m1), FBXW7 (Hs00217794_m1), Phf6 (Mm00804415_m1), and Mouse GAPD (GAPDH) (4352932, Applied Biosystems). Expression was normalized to RNU6B (001093, Applied Biosystems).
The mouse FBXW7 (bp 2793-4139; acc. no. NM_001177773), human NF1 (bp 10033-10666; acc. no NM_000267), human PHF6 (bp position 3271-4299; acc. no. NM_001015877) and Bim (bp. 3155-4773; acc. no. NM_009754) 3′UTR fragments were generated by PCR and cloned into the psi-CHECK-2 vector (Promega) with the exception of the IKZF1 3′UTR, which was purchased from Genecopoeia (cat no. HmiT000397b, by 2343-4471 of UTR). The assays were performed as described (Xiao, et al., 2008).

miR-19: miRNA of the 17˜92 cluster, UGUGCAAAUCCAUGCAAAACUGA (SEQ ID NO: 2); seed family in Table 3 (expressed or natural sequence; listed as Homo sapiens)
3′UTR inhibition (RLuc/Luc) [1]: direct 3′ untranslated region (UTR) inhibition via the miR-19 binding sites | leukemia onset / leukemia-free survival [2]: rapidly succumbed to T-ALL | leukemia onset / leukemia-free survival ([2]; listed as miR-19b): disease acceleration | regulation of tumor suppressor genes [3]: regulates PTEN and BCL2L11 expression
